IC50 data for 23 molecules are collected here from BindingDB's records for doi:10.1016/s0960-894x(00)00385-1 (Merck Research Laboratories, 2001).

The IC50 is the midpoint of a concentration-inhibition curve. A higher IC50 goes with weaker potency in that assay.

A short description of the assay: Inhibition of aggregation of human gel-filtered platelets measured by light transmittance method at 37 degrees C.
In the case of `O=C(NC[C@H](NS(=O)(=O)c1ccccc1)C(=O)O)c1ccc(OCCC2CCNCC2)cc1` [2-Benzenesulfonylamino-3-[4-(2-piperidin-4-yl-ethoxy)-benzoylamino]-propionic acid], the half-maximal inhibitory concentration (IC50) came to 0.013 µM.
Next, `C#CC(CCCN1CCC[C@@H](CCC2CCNCC2)C1=O)CC(=O)O` (stereo partly drawn) [3-Ethynyl-6-[(R)-2-oxo-3-(2-piperidin-4-yl-ethyl)-piperidin-1-yl]-hexanoic acid]: 0.051 µM; `O=C(O)CCNC(=O)CN1CCc2ccc(N3CCNCC3)cc2C1=O` [3-[2-(1-Oxo-7-piperazin-1-yl-3,4-dihydro-1H-isoquinolin-2-yl)-acetylamino]-propionic acid]: 0.14 µM; `C[C@H](CC(=O)O)NC(=O)CN1CCC[C@@H](CCC2CCNCC2)C1=O` [3-{2-[2-Oxo-3-(2-piperidin-4-yl-ethyl)-piperidin-1-yl]-acetylamino}-butyric acid (L-734217)]: 0.032 µM.
In the case of `C#CC(CC(=O)O)NC(=O)CN(C(=O)c1cccc(C2CCNCC2)c1)C1CC1` (stereo not drawn) [3-{2-[Cyclopropyl-(3-piperidin-4-yl-benzoyl)-amino]-acetylamino}-pent-4-ynoic acid] it was 0.015 µM.
For `CC(CC(=O)O)NC(=O)c1ccc2c(c1)C(=O)N(CCC1CCNCC1)C2` (stereo not drawn) [3-{[3-Oxo-2-(2-piperidin-4-yl-ethyl)-2,3-dihydro-1H-isoindole-5-carbonyl]-amino}-butyric acid], 0.065 µM corresponded to half-maximal inhibition (IC50). This IC50 lies about 4.3-fold higher than the previous one.
`C[C@@H](/C=C/CN1CCC[C@@H](CCC2CCNCC2)C1=O)CC(=O)O` [(E)-(R)-3-Methyl-6-[(R)-2-oxo-3-(2-piperidin-4-yl-ethyl)-piperidin-1-yl]-hex-4-enoic acid] came in with an IC50 of 0.057 µM.
Consider `O=C(CN1CCc2ccc(N3CCNCC3)cc2C1=O)NC[C@H](NS(=O)(=O)c1ccccc1)C(=O)O` [(S)-2-Benzenesulfonylamino-3-[2-(1-oxo-7-piperazin-1-yl-3,4-dihydro-1H-isoquinolin-2-yl)-acetylamino]-propionic acid], for which the IC50 amounted to 0.035 µM.
Next, `O=C(CN1CCC[C@@H](CCC2CCNCC2)C1=O)NC[C@H](NS(=O)(=O)c1ccccc1)C(=O)O` [(S)-2-Benzenesulfonylamino-3-{2-[(R)-2-oxo-3-(2-piperidin-4-yl-ethyl)-piperidin-1-yl]-acetylamino}-propionic acid]: 0.011 µM; `O=C(NC[C@H](NS(=O)(=O)c1ccccc1)C(=O)O)c1ccc2c(c1)C(=O)N(CCC1CCNCC1)C2` [(S)-2-Benzenesulfonylamino-3-{[3-oxo-2-(2-piperidin-4-yl-ethyl)-2,3-dihydro-1H-isoindole-5-carbonyl]-amino}-propionic acid]: 0.008 µM.
`O=C(NC[C@H](NS(=O)(=O)c1ccccc1)C(=O)O)c1cc2cc(OCCC3CCNCC3)ccc2[nH]1` [(S)-2-Benzenesulfonylamino-3-{[5-(2-piperidin-4-yl-ethoxy)-1H-indole-2-carbonyl]-amino}-propionic acid] had an IC50 of 0.01 µM. The IC50 values of the last two molecules are within 1.5-fold of each other.
`C#C[C@H](CC(=O)O)NC(=O)C[C@H]1CCCN(CCc2ccnc(N)c2)C1=O` [(S)-3-(2-{(R)-1-[2-(2-Amino-pyridin-4-yl)-ethyl]-2-oxo-piperidin-3-yl}-acetylamino)-pent-4-ynoic acid] displayed an IC50 of 0.019 µM. Compared with the last molecule, the IC50 is about 1.9-fold higher.
`C#C[C@H](CC(=O)O)NC(=O)CN1CCC[C@@H](CCc2ccnc(N)c2)C1=O` [(S)-3-(2-{(R)-3-[2-(2-Amino-pyridin-4-yl)-ethyl]-2-oxo-piperidin-1-yl}-acetylamino)-pent-4-ynoic acid] came in with an IC50 of 0.028 µM. The IC50 values of the last two molecules are within 1.5-fold of each other.
Next, `C#C[C@H](CC(=O)O)NC(=O)c1ccc2c(c1)C(=O)N(CCc1ccnc(N)c1)C2` [(S)-3-({2-[2-(2-Amino-pyridin-4-yl)-ethyl]-3-oxo-2,3-dihydro-1H-isoindole-5-carbonyl}-amino)-pent-4-ynoic acid]: 0.027 µM; `O=C(O)C[C@H](NC(=O)CN1CCc2ccc(N3CCNCC3)cc2C1=O)c1cccnc1` [(S)-3-[2-(1-Oxo-7-piperazin-1-yl-3,4-dihydro-1H-isoquinolin-2-yl)-acetylamino]-3-pyridin-3-yl-propionic acid]: 0.013 µM.
In the case of `O=C(O)C[C@H](NC(=O)C[C@H]1CCCN(CCC2CCNCC2)C1=O)c1cccnc1` [(S)-3-{2-[(R)-2-Oxo-1-(2-piperidin-4-yl-ethyl)-piperidin-3-yl]-acetylamino}-3-pyridin-3-yl-propionic acid] it was 0.009 µM; in that of `C#C[C@H](CC(=O)O)NC(=O)C[C@H]1CCCN(CCC2CCNCC2)C1=O` [(S)-3-{2-[(R)-2-Oxo-1-(2-piperidin-4-yl-ethyl)-piperidin-3-yl]-acetylamino}-pent-4-ynoic acid], 0.015 µM; in that of `O=C(O)C[C@H](NC(=O)CN1CCC[C@@H](CCC2CCNCC2)C1=O)c1cccnc1` [(S)-3-{2-[(R)-2-Oxo-3-(2-piperidin-4-yl-ethyl)-piperidin-1-yl]-acetylamino}-3-pyridin-3-yl-propionic acid], 0.01 µM.
`C#C[C@H](CC(=O)O)NC(=O)CN1CCC[C@@H](CCC2CCNCC2)C1=O` [(S)-3-{2-[(R)-2-Oxo-3-(2-piperidin-4-yl-ethyl)-piperidin-1-yl]-acetylamino}-pent-4-ynoic acid] came in with an IC50 of 0.013 µM.
`Cc1ccc(S(=O)(=O)N[C@@H](CNC(=O)c2cc3n(n2)CCCN(CCC2CCNCC2)C3=O)C(=O)O)cc1` [(S)-3-{[4-Oxo-5-(2-piperidin-4-yl-ethyl)-5,6,7,8-tetrahydro-4H-1,5,8a-triaza-azulene-2-carbonyl]-amino}-2-(toluene-4-sulfonylamino)-propionic acid] returned an IC50 of 0.008 µM.
As to `O=C(O)C[C@@H](CO)NC(=O)CN1CCc2ccc(N3CCNCC3)cc2C1=O` [(S)-4-Hydroxy-3-[2-(1-oxo-7-piperazin-1-yl-3,4-dihydro-1H-isoquinolin-2-yl)-acetylamino]-butyric acid], the IC50 was 0.081 µM.
Next, `O=C(O)C[C@@H](CO)NC(=O)c1ccc2c(c1)C(=O)N(CCC1CCNCC1)C2` [(S)-4-Hydroxy-3-{[3-oxo-2-(2-piperidin-4-yl-ethyl)-2,3-dihydro-1H-isoindole-5-carbonyl]-amino}-butyric acid]: 0.008 µM.
Next, `C#C[C@H](CC(=O)O)NC(=O)CN1CCc2ccc(N3CCNCC3)cc2C1=O` [L-767679]: 0.015 µM.
